Consider 35 compounds from EP2272817A1, “PAI-1 INHIBITOR” (Institute of Medicinal Molecular Design, Inc., priority 2008, dated 2009).

Molecules are shown by their SMILES.

Chain of recombinant human PAI-1 (P05121 24-402): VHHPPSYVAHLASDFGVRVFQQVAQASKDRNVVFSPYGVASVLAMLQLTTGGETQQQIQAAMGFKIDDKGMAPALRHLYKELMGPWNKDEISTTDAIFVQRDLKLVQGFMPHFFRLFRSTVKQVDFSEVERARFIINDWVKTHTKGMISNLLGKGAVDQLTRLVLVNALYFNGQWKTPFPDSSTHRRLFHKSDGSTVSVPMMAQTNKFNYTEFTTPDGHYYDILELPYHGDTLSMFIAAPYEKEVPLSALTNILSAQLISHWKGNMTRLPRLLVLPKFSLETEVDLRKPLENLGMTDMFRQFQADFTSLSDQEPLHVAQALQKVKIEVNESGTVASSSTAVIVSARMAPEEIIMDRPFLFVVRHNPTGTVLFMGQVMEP

The target in the experiment is recombinant human PAI-1 (Homo sapiens, UniProt P05121). Kind of experiment: Test Example 2: Human PAI-1 Inhibitory Activity (pH 7.4 HEPES buffer, 10 minutes incubation with two-chain tPA). It counts as biochemical. Details: purchased Molecular Innovations, Inc. The note with it: read-out: Inhibition Rate of PAI-1 Activity (%). How it is done: 0.1 M HEPES, 0.1 M NaCl. 1 mM EDTA. 0.1 % Polyethylene glycol 8,000 (Hampton Research Corporation),
2 mM Dimethyldecylphoshine oxide [Apo-10] (Fluka Corporation)
Turning to `O=C(O)/C=C/c1ccc(-c2ccc(OC(F)(F)F)cc2)cc1Oc1ccc(OC(F)(F)F)cc1` [Compound 477], the inhibition at 0.1 µM was found to be 7%, the inhibition at 0.3 µM stood at 21%, the inhibition at 1 µM stood at 60% and the inhibition at 3 µM is > 99%.
Taken in the same sequence, the figures for `CC(C)(C)c1ccc(-c2ccc(/C=C/C(=O)O)c(Oc3ccc(OC(F)(F)F)cc3)c2)cc1` [Compound 478] were 11%, 33%, 90% and > 99%.
Taken in the same sequence, the figures for `O=C(O)CCc1ccc(-c2ccc(OC(F)(F)F)cc2)cc1Oc1ccc(OC(F)(F)F)cc1` [Compound 479] were 17%, 14%, 70% and > 99%.
Taken in the same sequence, the figures for `CC(C)(C)c1ccc(-c2ccc(CCC(=O)O)c(Oc3ccc(OC(F)(F)F)cc3)c2)cc1` [Compound 480] were 17%, 22%, 80% and > 99%.
Take `CCCCc1ccc(Oc2cc(-c3ccc(OC(F)(F)F)cc3)ccc2OCC(=O)O)cc1` [Compound 481]: the inhibition at 0.1 µM was 19%, the inhibition at 0.3 µM worked out at 16%, the inhibition at 1 µM was determined as 70% and the inhibition at 3 µM is > 99%.
In the case of `CC(CCOc1ccc(-c2ccc(OC(F)(F)F)cc2)cc1OCc1ccc(C(C)(C)C)cc1)C(=O)O` (centres unmarked) [Compound 482], the inhibition at 0.1 µM was 7%, the inhibition at 0.3 µM turned out to be 12%, the inhibition at 1 µM came out at 52% and the inhibition at 3 µM is > 99%.
Taken in the same sequence, the figures for `CC(C)(C)c1ccc(Oc2cc(-c3cc(Cl)ccc3Cl)ccc2/C=C/C(=O)O)cc1` [Compound 483] were 0%, 8%, 76% and > 99%.
In the case of `CC(C)(C)c1ccc(Oc2cc(-c3cc(Cl)ccc3Cl)ccc2CCC(=O)O)cc1` [Compound 484], the inhibition at 0.1 µM stood at 0%, the inhibition at 0.3 µM came to 7%, the inhibition at 1 µM was 73% and the inhibition at 3 µM was > 99%.
Taken in the same sequence, the figures for `CC(C)(C)c1ccc(Oc2cc(-c3cccc([N+](=O)[O-])c3)ccc2OCC(=O)O)cc1` [Compound 485] were 0%, 6%, 11% and 69%.
Taken in the same sequence, the figures for `O=C(O)/C=C/c1ccc(-c2ccc(OC(F)(F)F)cc2)cc1OCCCOCc1ccccc1` [Compound 487] were 0%, 3%, 26% and 98%.
As to `O=C(O)CCc1ccc(-c2ccc(OC(F)(F)F)cc2)cc1OCCCOCc1ccccc1` [Compound 488], the inhibition at 0.1 µM is 0%, the inhibition at 0.3 µM is 10%, the inhibition at 1 µM amounted to 36% and the inhibition at 3 µM was determined as 91%.
Turning to `O=C(O)/C=C/c1ccc(-c2ccc(OC(F)(F)F)cc2)cc1OCCCSc1ccccc1` [Compound 489], the inhibition at 0.1 µM worked out at 12%, the inhibition at 0.3 µM worked out at 14%, the inhibition at 1 µM is 69% and the inhibition at 3 µM was > 99%.
The like results for `CC(C)c1ccccc1Oc1cc(-c2ccc(OC(F)(F)F)cc2)ccc1/C=C/C(=O)O` [Compound 490] were, in that order, 6%, 13%, 91% and > 99%.
Taken in the same sequence, the figures for `CC(C)c1ccccc1Oc1cc(-c2ccc(OC(F)(F)F)cc2)ccc1CCC(=O)O` [Compound 491] were 6%, 10%, 66% and > 99%.
Taken in the same sequence, the figures for `O=C(O)COc1ccc(-c2ccc(OC(F)(F)F)cc2)cc1Oc1ccc(OCc2ccccc2)cc1` [Compound 492] were 5%, 20%, > 99% and > 99%.
With `Cc1cc(C)cc(Oc2cc(-c3ccc(C(C)(C)C)cc3)ccc2/C=C/C(=O)O)c1` [Compound 494], the inhibition at 0.1 µM is 9%, the inhibition at 0.3 µM amounted to 24%, the inhibition at 1 µM is 87% and the inhibition at 3 µM amounted to 92%.
Taken in the same sequence, the figures for `CC(C)(C)c1ccc(Oc2cc(-c3ccc(C(C)(C)C)cc3)ccc2/C=C/C(=O)O)cc1` [Compound 495] were 8%, 64%, 98% and > 99%.
Taken in the same sequence, the figures for `Cc1cc(C)cc(-c2ccc(/C=C/C(=O)O)c(Oc3ccc(C(C)(C)C)cc3)c2)c1` [Compound 496] were 4%, 9%, 85% and > 99%.
Taken in the same sequence, the figures for `CC(C)(C)c1ccc(Oc2cc(-c3ccc(C(C)(C)C)cc3)ccc2CCC(=O)O)cc1` [Compound 497] were 3%, 24%, > 99% and > 99%.
Turning to `Cc1cc(C)cc(-c2ccc(CCC(=O)O)c(Oc3ccc(C(C)(C)C)cc3)c2)c1` [Compound 498], the inhibition at 0.1 µM was determined as 1%, the inhibition at 0.3 µM was determined as 4%, the inhibition at 1 µM is 44% and the inhibition at 3 µM was > 99%.
The like results for `Cc1cc(C)cc(Oc2cc(-c3ccc(C(C)(C)C)cc3)ccc2CCC(=O)O)c1` [Compound 499] were, in that order, 15%, 14%, 77% and 98%.
In the case of `CC(Oc1cc(-c2ccc(OC(F)(F)F)cc2)ccc1/C=C/C(=O)O)c1ccccc1` (centres unmarked) [Compound 500], the inhibition at 0.1 µM amounted to 19%, the inhibition at 0.3 µM amounted to 14%, the inhibition at 1 µM stood at 25% and the inhibition at 3 µM stood at 80%.
The like results for `CC(Oc1cc(-c2ccc(OC(F)(F)F)cc2)ccc1CCC(=O)O)c1ccccc1` (centres unmarked) [Compound 501] were, in that order, 12%, 0%, 12% and 83%.
On to `CC(C)(C)c1ccc(Oc2cc(-c3cccc(OC(F)(F)F)c3)ccc2/C=C/C(=O)O)cc1` [Compound 503], for which the inhibition at 0.1 µM stood at 13%, the inhibition at 0.3 µM is 27%, the inhibition at 1 µM was 97% and the inhibition at 3 µM stood at 93%.
The like results for `CC(C)(C)c1ccc(Oc2cc(-c3cccc(OC(F)(F)F)c3)ccc2CCC(=O)O)cc1` [Compound 504] were, in that order, 13%, 26%, 91% and > 99%.
On to `CCCCc1ccc(-c2ccc(Oc3ccc(C(C)(C)C)cc3)c(OCC(=O)O)c2)cc1` [Compound 505], for which the inhibition at 0.1 µM came to 0%, the inhibition at 0.3 µM stood at 33%, the inhibition at 1 µM is > 99% and the inhibition at 3 µM is > 99%.
Consider `O=C(O)/C=C/c1ccc(-c2ccc(OC(F)(F)F)cc2)cc1OC(c1ccccc1)c1ccccc1` [Compound 506], for which the inhibition at 0.1 µM was determined as 2%, the inhibition at 0.3 µM amounted to 9%, the inhibition at 1 µM turned out to be 78% and the inhibition at 3 µM was > 99%.
Taken in the same sequence, the figures for `O=C(O)CCc1ccc(-c2ccc(OC(F)(F)F)cc2)cc1OC(c1ccccc1)c1ccccc1` [Compound 507] were 6%, 8%, 49% and > 99%.
The like results for `O=C(O)CCc1ccc(-c2ccc(OC(F)(F)F)cc2)cc1OCCCSc1ccccc1` [Compound 508] were, in that order, 18%, 9%, 48% and 98%.
Taken in the same sequence, the figures for `CC(C)c1ccc(Oc2cc(-c3ccc(OC(F)(F)F)cc3)ccc2/C=C/C(=O)O)cc1` [Compound 509] were 1%, 22%, 96% and > 99%.
Take `CC(C)c1ccc(Oc2cc(-c3ccc(OC(F)(F)F)cc3)ccc2CCC(=O)O)cc1` [Compound 510]: the inhibition at 0.1 µM turned out to be 0%, the inhibition at 0.3 µM came to 8%, the inhibition at 1 µM is 84% and the inhibition at 3 µM was > 99%.
The like results for `CCCCc1ccc(Oc2cc(-c3ccc(OC(F)(F)F)cc3)ccc2/C=C/C(=O)O)cc1` [Compound 511] were, in that order, 11%, 68%, > 99% and > 99%.
The like results for `CCCCc1ccc(Oc2cc(-c3ccc(OC(F)(F)F)cc3)ccc2CCC(=O)O)cc1` [Compound 512] were, in that order, 18%, 41%, 96% and 98%.
On to `CC(C)c1ccccc1Oc1cc(-c2ccc(OC(F)(F)F)cc2)ccc1OCC(=O)O` [Compound 513], for which the inhibition at 0.1 µM was found to be 17%, the inhibition at 0.3 µM came out at 7%, the inhibition at 1 µM came out at 69% and the inhibition at 3 µM is > 99%.
Regarding `CC(C)(C)c1cccc(Oc2cc(-c3cccc(OC(F)(F)F)c3)ccc2/C=C/C(=O)O)c1` [Compound 514], the inhibition at 0.1 µM was 21%, the inhibition at 0.3 µM was 22%, the inhibition at 1 µM was 96% and the inhibition at 3 µM is > 99%.

By inhibition is commonly meant the relative decrease from the control value, in per cent.
